Assay results: patent US12577234B2, “Antagonists of the muscarinic acetylcholine receptor M4” (Vanderbilt University, priority 2017, dated 2026)

Molecular target: T1, human mAChR M4 (Homo sapiens, UniProt P08173)
T1 construct: expressed in transfected cells; host or cells: CHO-K1 (ATCC), stably co-expressing chimeric G protein Gqi5
T1 sequence (P08173 1-479): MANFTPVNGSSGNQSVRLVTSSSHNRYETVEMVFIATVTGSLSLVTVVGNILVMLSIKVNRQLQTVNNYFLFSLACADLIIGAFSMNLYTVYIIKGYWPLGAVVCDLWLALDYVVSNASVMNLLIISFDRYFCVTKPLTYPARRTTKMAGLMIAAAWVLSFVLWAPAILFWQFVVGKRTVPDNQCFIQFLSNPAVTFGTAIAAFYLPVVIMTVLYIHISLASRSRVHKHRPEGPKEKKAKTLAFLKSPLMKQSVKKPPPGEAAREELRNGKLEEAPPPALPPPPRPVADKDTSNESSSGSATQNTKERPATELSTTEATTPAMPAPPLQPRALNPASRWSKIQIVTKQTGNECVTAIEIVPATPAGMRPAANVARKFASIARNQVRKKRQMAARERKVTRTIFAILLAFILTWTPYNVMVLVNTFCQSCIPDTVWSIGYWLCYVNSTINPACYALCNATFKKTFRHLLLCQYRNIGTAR
Experiment: mAChR M4 cell-based functional assay (calcium mobilization, EC80 acetylcholine), human M4
Settings: for IC50: M4/Gqi5/CHO-K1 cells, decrease of EC80 acetylcholine response; for Emin: human M4, % ACh maximum at 30 μM
Procedure, shortened: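 CHO-K1 cells stably expressing human M4 with chimeric Gqi5; intracellular calcium rise read on FDSS as fluorescence static ratio at 1 Hz. Compounds in 10-point 1:3 dilution series; IC50 taken as concentration-dependent decrease of the EC80 acetylcholine response, four-parameter logistic fit.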

| SMILES | Human M4 Emin (Table 10) [%] | IC50 (Table 10) [nM] | IC50 (Table 9) [nM] | Emin (Table 9) [%] |
| --- | --- | --- | --- | --- |
| Fc1ccc(Cl)c(-c2ccc(N[C@H]3C[C@@H]4CN(Cc5ccoc5)C[C@@H]4C3)nn2)c1 [Compound 178, (3aR,5s,6aS)-N-[6-(2-chloro-5-fluoro-phenyl)pyridazin-3-yl]-2-(3-furylmethyl)-3,3a,4,5,6,6a-hexahydro-1H-cyclopenta[c]pyrrol-5-amine] | 3 | 45.1 |  |  |
| CCC(C)CN1C[C@H]2C[C@H](Nc3ccc(-c4cc(F)ccc4Cl)nn3)C[C@H]2C1 (stereo partly drawn) [Compound 29, (3aR,5s,6aS)-N-[6-(2-chloro-5-fluoro-phenyl)pyridazin-3-yl]-2-(2-methylbutyl)-3,3a,4,5,6,6a-hexahydro-1H-cyclopenta[c]pyrrol-5-amine] |  |  | 2.6 | 7.8 |
| Fc1ccc(Cl)c(-c2ccc(OCC3C[C@@H]4CN(Cc5ccccn5)C[C@@H]4C3)nn2)c1 (stereo partly drawn) [Compound 117, (3aR,6aS)-5-[[6-(2-chloro-5-fluoro-phenyl)pyridazin-3-yl]oxymethyl]-2-(2-pyridylmethyl)-3,3a,4,5,6,6a-hexahydro-1H-cyclopenta[c]pyrrole] |  |  | 1460 | 4.82 |
| Cc1nn(C)cc1-c1cnc(N[C@H]2C[C@@H]3CN(CC4CC5C=CC4C5)C[C@@H]3C2)cn1 (stereo partly drawn) [Compound 154, (3aR,5s,6aS)-2-(5-bicyclo[2.2.1]hept-2-enylmethyl)-N-[5-(1,3-dimethylpyrazol-4-yl)pyrazin-2-yl]-3,3a,4,5,6,6a-hexahydro-1H-cyclopenta[c]pyrrol-5-amine] | 4 | 30.8 |  |  |
| Cc1nn(C)cc1-c1ccc(NCC2C[C@@H]3CN(CC4CC5C=CC4C5)C[C@@H]3C2)nn1 (stereo partly drawn) [Compound 62, N-[[(3aR,6aS)-2-(5-bicyclo[2.2.1]hept-2-enylmethyl)-3,3a,4,5,6,6a-hexahydro-1H-cyclopenta[c]pyrrol-5-yl]methyl]-6-(1,3-dimethylpyrazol-4-yl)pyridazin-3-amine] |  |  | 18.9 | 3.32 |
| Cc1cnn(C)c1-c1ccc(NC(=O)[C@H]2C[C@@H]3CN(CCC(C)(C)C)C[C@@H]3C2)nn1 [Compound 145, (3aR,5s,6aS)-2-(3,3-dimethylbutyl)-N-[6-(2,4-dimethylpyrazol-3-yl)pyridazin-3-yl]-3,3a,4,5,6,6a-hexahydro-1H-cyclopenta[c]pyrrole-5-carboxamide] | 4 | 239 |  |  |
| Cc1cccnc1CN1C[C@H]2C[C@@H](Oc3ccc(-c4cc(F)ccc4Cl)nn3)C[C@H]2C1 [Compound 58, (3aR,5r,6aS)-5-[6-(2-chloro-5-fluoro-phenyl)pyridazin-3-yl]oxy-2-[(3-methyl-2-pyridyl)methyl]-3,3a,4,5,6,6a-hexahydro-1H-cyclopenta[c]pyrrole] |  |  | 1460 | 6.11 |
| Cc1cnn(C)c1-c1ccc(NC(=O)C2CC3CN(CC(C)C(C)(C)C)CC3C2)nn1 (stereo not shown) [Compound 76, N-[6-(2,4-dimethylpyrazol-3-yl)pyridazin-3-yl]-2-(2,3,3-trimethylbutyl)-3,3a,4,5,6,6a-hexahydro-1H-cyclopenta[c]pyrrole-5-carboxamide] |  |  | 1040 | 4.09 |
| Fc1ccc(Cl)c(-c2ccc(N[C@H]3C[C@@H]4CN(Cc5ccccc5)C[C@@H]4C3)nn2)c1 [Compound 34, (3aR,5s,6aS)-2-benzyl-N-[6-(2-chloro-5-fluoro-phenyl)pyridazin-3-yl]-3,3a,4,5,6,6a-hexahydro-1H-cyclopenta[c]pyrrol-5-amine] |  |  | 16.8 | 8.84 |
| Fc1ccc(Cl)c(-c2ccc(N[C@H]3C[C@@H]4CN(CC56CC7CC(CC(C7)C5)C6)C[C@@H]4C3)nn2)c1 [Compound 26, (3aR,5s,6aS)-2-(1-adamantylmethyl)-N-[6-(2-chloro-5-fluoro-phenyl)pyridazin-3-yl]-3,3a,4,5,6,6a-hexahydro-1H-cyclopenta[c]pyrrol-5-amine] |  |  | 128 | 3.20 |
| Cc1cnn(C)c1-c1ccc(NC[C@H]2C[C@@H]3CN(CC4CC5C=CC4C5)C[C@@H]3C2)nn1 (stereo partly drawn) [Compound 64, N-[[(3aR,5s,6aS)-2-(5-bicyclo[2.2.1]hept-2-enylmethyl)-3,3a,4,5,6,6a-hexahydro-1H-cyclopenta[c]pyrrol-5-yl]methyl]-6-(2,4-dimethylpyrazol-3-yl)pyridazin-3-amine] |  |  | 7.9 | 3.74 |

The next lines start with the values.

| Human M4 Emin (Table 10) [%] | IC50 (Table 10) [nM] | IC50 (Table 9) [nM] | Emin (Table 9) [%] | SMILES |
| --- | --- | --- | --- | --- |
| 5 | 19.6 |  |  | Fc1ccc(Oc2ccc(N[C@H]3C[C@@H]4CN(CC5CCOCC5)C[C@@H]4C3)nn2)cc1 [Compound 225, (3aR,5s,6aS)-N-[6-(4-fluorophenoxy)pyridazin-3-yl]-2-(tetrahydropyran-4-ylmethyl)-3,3a,4,5,6,6a-hexahydro-1H-cyclopenta[c]pyrrol-5-amine] |
| 16 | 11.8 |  |  | N#Cc1ccc(F)cc1-c1ccc(N[C@H]2C[C@@H]3CN(CC4CCOCC4)C[C@@H]3C2)nn1 [Compound 213, 2-[6-[[(3aR,5s,6aS)-2-(tetrahydropyran-4-ylmethyl)-3,3a,4,5,6,6a-hexahydro-1H-cyclopenta[c]pyrrol-5-yl]amino]pyridazin-3-yl]-4-fluoro-benzonitrile] |
|  |  | 4600 | 14.2 | Cc1cnn(C)c1-c1ccc(OCC2C[C@@H]3CN(CC4CCCOC4)C[C@@H]3C2)nn1 (stereo partly drawn) [Compound 85, (3aR,6aS)-5-[[6-(2,4-dimethylpyrazol-3-yl)pyridazin-3-yl]oxymethyl]-2-(tetrahydropyran-3-ylmethyl)-3,3a,4,5,6,6a-hexahydro-1H-cyclopenta[c]pyrrole] |
| 25 | 4.14 |  |  | Cn1cc(-c2ccc(N[C@H]3C[C@@H]4CN(CC5CCOCC5)C[C@@H]4C3)nn2)cn1 [Compound 208, (3aR,5s,6aS)-N-[6-(1-methylpyrazol-4-yl)pyridazin-3-yl]-2-(tetrahydropyran-4-ylmethyl)-3,3a,4,5,6,6a-hexahydro-1H-cyclopenta[c]pyrrol-5-amine] |
|  |  | 10 | 3.11 | CCCC(C)CN1C[C@H]2C[C@H](Nc3ccc(-c4c(C)cnn4C)nn3)C[C@H]2C1 (stereo partly drawn) [Compound 19, (3aR,5s,6aS)-N-[6-(2,4-dimethylpyrazol-3-yl)pyridazin-3-yl]-2-(2-methylpentyl)-3,3a,4,5,6,6a-hexahydro-1H-cyclopenta[c]pyrrol-5-amine] |
| 4 | 9.11 |  |  | F[C@H]1CCN(c2ccc(N[C@H]3C[C@@H]4CN(CC5CCOCC5)C[C@@H]4C3)nn2)C1 [Compound 195, (3aR,5s,6aS)-N-[6-[(3R)-3-fluoropyrrolidin-1-yl]pyridazin-3-yl]-2-(tetrahydropyran-4-ylmethyl)-3,3a,4,5,6,6a-hexahydro-1H-cyclopenta[c]pyrrol-5-amine] |
| 3 | 18.8 |  |  | Fc1ccc(Cl)c(-c2ccc(N[C@H]3C[C@@H]4CN(CC5CC5)C[C@@H]4C3)nn2)c1 [Compound 169, (3aR,5s,6aS)-N-[6-(2-chloro-5-fluoro-phenyl)pyridazin-3-yl]-2-(cyclopropylmethyl)-3,3a,4,5,6,6a-hexahydro-1H-cyclopenta[c]pyrrol-5-amine] |
| 8 | 1580 |  |  | Cc1nn(C)cc1-c1ccc(N[C@H]2C[C@@H]3CN(CC4CCOCC4)C[C@@H]3C2)nc1 [Compound 152, (3aR,5s,6aS)-N-[5-(1,3-dimethylpyrazol-4-yl)-2-pyridyl]-2-(tetrahydropyran-4-ylmethyl)-3,3a,4,5,6,6a-hexahydro-1H-cyclopenta[c]pyrrol-5-amine] |
|  |  | 8 | 13.1 | Cc1cnn(C)c1-c1ccc(N[C@H]2C[C@@H]3CN(CCC(C)(C)C)C[C@@H]3C2)nn1 [Compound 1, (3aR,5s,6aS)-2-(3,3-Dimethylbutyl)-N-[6-(2,4-dimethylpyrazol-3-yl)pyridazin-3-yl]-3,3a,4,5,6,6a-hexahydro-1H-cyclopenta[c]pyrrol-5-amine] |
|  |  | 0.6 | 4.99 | Cc1nn(C)cc1-c1ccc(N[C@H]2C[C@@H]3CN(CCC(C)(C)C)C[C@@H]3C2)nn1 [Compound 3, (3aR,5s,6aS)-2-(3,3-dimethylbutyl)-N-[6-(1,3-dimethylpyrazol-4-yl)pyridazin-3-yl]-3,3a,4,5,6,6a-hexahydro-1H-cyclopenta[c]pyrrol-5-amine] |
| 3 | 58.3 |  |  | CC(=O)Nc1ccc(-c2ccc(O[C@H]3C[C@@H]4CN(CC5CCCCC5)C[C@@H]4C3)nn2)cc1 [Compound 130, N-[4-[6-[[(3aR,5s,6aS)-2-(cyclohexylmethyl)-3,3a,4,5,6,6a-hexahydro-1H-cyclopenta[c]pyrrol-5-yl]oxy]pyridazin-3-yl]phenyl]acetamide] |
| 3 | 0.8 |  |  | c1cc(N2CCCCC2)nnc1N[C@H]1C[C@@H]2CN(CC3CCOCC3)C[C@@H]2C1 [Compound 193, (3aR,5s,6aS)-N-[6-(1-piperidyl)pyridazin-3-yl]-2-(tetrahydropyran-4-ylmethyl)-3,3a,4,5,6,6a-hexahydro-1H-cyclopenta[c]pyrrol-5-amine] |
